Source: patent US20100233194A1, “TREATMENT OF NEOVASCULAR OCULAR DISEASE STATES” (priority 2007, published 2010)

System: VEGF-induced retinal vascular leakage
Assay: VEGF-induced vascular leakage in a rabbit model of blood-retinal barrier breakdown (ocular fluorophotometry)
Settings: for Inhibition of retinal vascular leakage: single intravitreal injection Day 0, 500 ng rhVEGF165 Day 5, fluorophotometry Day 7, rabbit

For `CC1(C)O[C@@H]2C[C@H]3[C@@H]4CCC5=CC(=O)C=C[C@]5(C)[C@@]4(F)[C@@H](O)C[C@]3(C)[C@]2(C(=O)CO)O1` [TA, triamcinolone acetonide], the “Inhibition of retinal vascular leakage” value (TA 75 μg) was 13%, the “Inhibition of retinal vascular leakage” value (TA 400 μg) was 96% and the “inhibition of the VEGF-induced retinal vascular leakage” value (separate study, TA 75 μg alone) was 10%.
